The source of these data is the supplement of paper PMC7600603.

Test [1] has as its system DLD1 NRF2-GOF. In words: drug sensitivity score (DSS) cytotoxicity (DSS score); higher = more toxic; extreme values may be limits of the assay. Conditions: 72 h; CellTox Green cytotoxicity. The essentials:
(§1)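 Isogenic DLD1 colorectal cancer cells differing in NRF2 status, one line edited by CRISPR, were cultured in DMEM with 10% FBS and treated in 384-well plates with library compounds at 5 concentrations spanning a 10,000-fold range. Plates were read after 72 h with CellTox Green on a Pherastar FS reader, and signals were normalised to vehicle wells and 100-μM positive-control wells. Cytotoxicity was summarised as TC50 and as a drug sensitivity score, a normalised area under the curve, both from logistic dose-response fits.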

Test [2] deals with DLD1 NRF2-WT. The test is described as above. Conditions: 72 h; CellTox Green cytotoxicity. Put shortly: as §1
Test [3] concerns DLD1 NRF2-WT. In words: drug sensitivity score (DSS) viability (DSS score); higher = more sensitive; extreme values may be limits of the assay. Conditions: 72 h; CellTiter-Glo viability. Put shortly: (§2)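 Isogenic DLD1 colorectal cancer cells, either NRF2 wild-type or CRISPR gain-of-function, were grown in DMEM with 10% FBS. They were exposed in 384-well plates to library compounds at 5 concentrations spanning a 10,000-fold range. After 72 h, viability was read by CellTiter-Glo on a Pherastar FS reader and normalised to vehicle wells and 100-μM positive-control wells. EC50 and drug sensitivity score (a normalised area under the curve) came from four-parameter logistic dose-response fits.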
In general terms: Cellular ATP, detected with luciferase, serves as a proxy for viable cell number.

Test [4] concerns DLD1 NRF2-GOF. Briefly: TC50 cytotoxicity; higher = less toxic. Conditions: 72 h; CellTox Green cytotoxicity. The essentials: as §1
The subject of test [5] is DLD1 NRF2-WT. In words: TC50 cytotoxicity; higher = less toxic. Conditions: 72 h; CellTox Green cytotoxicity. Put shortly: as §1
For test [6], the system named is DLD1 NRF2-WT. Conditions: 72 h; CellTiter-Glo viability. Put shortly:
as §2

`N#Cc1ccc(COC[C@H]2O[C@@H](n3c(NCc4ccc(Cl)c(Cl)c4)nc4c(N)ncnc43)[C@H](O)[C@@H]2O)cc1`: the drug sensitivity score was determined as 0 in test [1], 0 in test [2] and 3.2 in test [3]. Besides, the TC50 cytotoxicity in test [4] and in test [5] was above 10 µM in each case.
As to `CC(C)c1c(C(=O)Nc2ccccc2)c(-c2ccccc2)c(-c2ccc(F)cc2)n1CC[C@@H](O)C[C@@H](O)CC(=O)O` [Atorvastatin], the EC50 viability in test [6] stood at 3.75 µM. In test [3], this compound registered a drug sensitivity score of 2.5.
`O=C(c1ccc(F)c(F)c1Nc1ccc(I)cc1F)N1CC(O)([C@@H]2CCCCN2)C1` [Cobimetinib] gave an EC50 viability in test [6] of 0.207 µM. This compound had a drug sensitivity score in test [3] of 3.
`C[C@@H](Oc1cc(-c2cnn(C3CCNCC3)c2)cnc1N)c1c(Cl)ccc(F)c1Cl` [Crizotinib]: the EC50 viability in test [6] is above 1 µM. The drug sensitivity score in test [3] was 0.
On to `Cc1cc(OCc2nnc(SC3CCCC3)n2-c2cccnc2)ccc1-c1ccc(S(C)(=O)=O)cc1` [NMS-873], for which the EC50 viability in test [6] came to 0.273 µM. In test [3], this compound showed a drug sensitivity score of 5.5.
Take `Cn1c(Nc2ccc(C(F)(F)F)cc2)nc2cc(Oc3ccnc(-c4ncc(C(F)(F)F)[nH]4)c3)ccc21` [NVP-RAF265]: in test [6], the EC50 viability came out at 0.191 µM. In test [3], this compound gave a drug sensitivity score of 3.2.
Regarding `CC#CC(=O)N1CC[C@@H](n2c(=O)n(-c3ccc(Oc4ccccc4)cc3)c3c(N)ncnc32)C1` [ONO-4059], the drug sensitivity score in test [1] and in test [2] was 0 throughout. For the same compound, the TC50 cytotoxicity in test [4] and in test [5] was above 1 µM in each case.
In the case of `CC1(C)CC[C@]2(NC(=O)C(C)(F)F)CC[C@]3(C)[C@H](C(=O)C=C4[C@@]5(C)C=C(C#N)C(=O)C(C)(C)[C@@H]5CC[C@]43C)[C@@H]2C1` [Omaveloxolone], the drug sensitivity score in test [1] and in test [2] was 0 each time. The TC50 cytotoxicity in test [4] and in test [5] was above 10 µM each time.
As to `CC(C)c1cc(C(=O)N2Cc3ccc(CN4CCN(C)CC4)cc3C2)c(O)cc1O` [Onalespib], the drug sensitivity score in test [1] and in test [2] was 0 throughout. Further, the TC50 cytotoxicity in test [4] and in test [5] was above 2.5 µM each time.
`O=C(O)C(=O)O.[NH-][C@@H]1CCCC[C@H]1[NH-].[Pt+2]` [Oxaliplatin]: in test [6], the EC50 viability was determined as 25.3 µM. This compound also came in with a drug sensitivity score in test [3] of 3.
Consider `CN1CCN(c2cc(C(=O)Nc3ccc4c(c3)-c3c(c(C(N)=O)nn3-c3ccc(F)cc3)CC4)c(Cl)cn2)CC1` [PHA 408], for which the drug sensitivity score in test [1] and in test [2] was 0 in each case. Moreover, the TC50 cytotoxicity in test [4] and in test [5] was above 10 µM in each case.
Regarding `NS(=O)(=O)OC[C@@H]1C[C@@H](n2ccc3c(N[C@H]4CCc5ccccc54)ncnc32)C[C@@H]1O` [Pevonedistat], the drug sensitivity score in test [1] and in test [2] was 0 each time. For the same compound, the TC50 cytotoxicity in test [4] and in test [5] was above 10 µM each time.
As for `Cn1cc(CNCC2CCN(c3ncc(C(=O)NO)cn3)CC2)c2ccccc21` [Quisinostat], the drug sensitivity score in test [1] was determined as 0; in test [2] it was 5.1. Also, the TC50 cytotoxicity is above 1 µM in test [4] and 0.135 µM in test [5].
Turning to `CC(C)(C)c1cc(NC(=O)Nc2ccc(-c3cn4c(n3)sc3cc(OCCN5CCOCC5)ccc34)cc2)no1` [Quizartinib], the drug sensitivity score in test [1] and in test [2] was 0 each time. Besides, the TC50 cytotoxicity in test [4] and in test [5] was above 1 µM in each case.
`CCOC(=O)C1=CCCC[C@H]1S(=O)(=O)Nc1ccc(F)cc1Cl` [Resatorvid]: the drug sensitivity score in test [1] and in test [2] was 0 in each case. Also, the TC50 cytotoxicity in test [4] and in test [5] was above 10 µM each time.
For the compound `CN(C)Cc1ccc(S(=O)(=O)n2ccc(/C=C/C(=O)NO)c2)cc1` [Resminostat], the drug sensitivity score in test [1] and in test [2] was 0 each time. Further, the TC50 cytotoxicity in test [4] and in test [5] was above 10 µM each time.
For `C[C@H]1CNCCCN1S(=O)(=O)c1cccc2cncc(F)c12` [Ripasudil], the drug sensitivity score in test [1] and in test [2] was 0 each time. Also, the TC50 cytotoxicity in test [4] and in test [5] was above 10 µM in each case.
For `O=C(CCCCCCNC(=O)c1cnc(N(c2ccccc2)c2ccccc2)nc1)NO` [Rocilinostat], the drug sensitivity score in test [1] and in test [2] was 0 in each case. Further, the TC50 cytotoxicity in test [4] and in test [5] was above 10 µM in each case.
With `CC(C)N(CCCNC(=O)Nc1ccc(C(C)(C)C)cc1)C[C@H]1O[C@@H](n2cc(Br)c3c(N)ncnc32)[C@H](O)[C@@H]1O` [SGC0946], the drug sensitivity score was 0 in test [1], 0 in test [2] and 0.9 in test [3]. Further, the TC50 cytotoxicity in test [4] and in test [5] was above 10 µM in each case.
For the compound `CN(CC(=O)N(Cc1ccc(C2CCCCC2)cc1)c1ccc(C(=O)O)cc1)S(=O)(=O)c1c(F)c(F)c(F)c(F)c1F` [SH-4-54], the drug sensitivity score in test [1] and in test [2] was 0 each time. Further, the TC50 cytotoxicity in test [4] and in test [5] was above 25 µM throughout.
Take `Cc1cc2c(C(=O)NC[C@H](C)c3ccccc3)c(O)c(O)cc2c(O)c1-c1c(C)cc2c(C(=O)NC[C@H](C)c3ccccc3)c(O)c(O)cc2c1O` [Sabutoclax]: the drug sensitivity score in test [1] and in test [2] was 0 throughout. The TC50 cytotoxicity in test [4] and in test [5] was above 25 µM each time.
As for `CC[C@@H](C(=O)[C@@H](C)[C@@H](O)[C@H](C)[C@@H]1O[C@@H]([C@@H](CC)C(=O)O)CC[C@@H]1C)[C@H]1O[C@]2(C=C[C@@H](O)[C@]3(CC[C@@](C)([C@H]4CC[C@](O)(CC)[C@H](C)O4)O3)O2)[C@H](C)C[C@@H]1C` [Salinomycin], the drug sensitivity score in test [1] came to 0; in test [2], 0.2. For the same compound, the TC50 cytotoxicity in test [4] and in test [5] was above 50 µM throughout.
Take `CO[C@H]1C[C@@H]2CC[C@@H](C)[C@@](O)(O2)C(=O)C(=O)N2CCCC[C@H]2C(=O)O[C@H]([C@H](C)C[C@@H]2CC[C@@H](O)[C@H](OC)C2)CC(=O)[C@H](C)/C=C(\C)[C@@H](O)[C@@H](OC)C(=O)[C@H](C)C[C@H](C)/C=C/C=C/C=C/1C` [Sirolimus]: the drug sensitivity score in test [3] came out at 3.1.
Take `Cc1c(C(=O)Nc2ccc(N3C[C@@H](C)O[C@@H](C)C3)nc2)cccc1-c1ccc(OC(F)(F)F)cc1` [Sonidegib]: the drug sensitivity score in test [1] and in test [2] was 0 in each case. For the same compound, the TC50 cytotoxicity in test [4] and in test [5] was above 10 µM throughout.
For the compound `C=CCN(/C=C1/C(=O)O[C@H](COC)[C@@]2(C)C1=C(O)C(=O)C1=C2[C@H](OC(C)=O)C[C@]2(C)C(=O)CC[C@@H]12)CC=C` [Sonolisib], the drug sensitivity score in test [1] and in test [2] was 0 throughout. The TC50 cytotoxicity in test [4] and in test [5] was above 10 µM throughout.
In turn, `CC(C)n1cnc2c(NCCc3ccc(O)cc3)nc(-c3csc4ccccc34)nc21` [StemRegenin 1] yielded an EC50 viability in test [6] of 0.855 µM. The compound also registered a drug sensitivity score in test [3] of 3.9.
As to `Cc1cc(C(C)Nc2ccccc2)c2nc(N3CCOCC3)cc(=O)n2c1` (centres undefined) [TGX-221], the drug sensitivity score in test [1] and in test [2] was 0 each time. For the same compound, the TC50 cytotoxicity in test [4] and in test [5] was above 10 µM in each case.
For `Nc1nc(NC2CC2)cc(-c2cccc(Cl)c2Cl)n1` [TH588], the drug sensitivity score in test [1] and in test [2] was 0 throughout. In addition, the TC50 cytotoxicity in test [4] and in test [5] was above 25 µM in each case.
`CN(C(=O)c1ccc(F)cc1C(F)(F)F)C1CCN(c2nnc(-c3ccnn3C)c3ccccc23)CC1` [Taladegib]: the drug sensitivity score in test [1] and in test [2] was 0 throughout. Besides, the TC50 cytotoxicity in test [4] and in test [5] was above 10 µM each time.
`C[C@@H]1CN(Cc2ccc(F)cc2)[C@@H](C)CN1C(=O)c1cc2c(C(=O)C(=O)N(C)C)cn(C)c2cc1Cl` [Talmapimod]: the drug sensitivity score in test [1] and in test [2] was 0 throughout. For the same compound, the TC50 cytotoxicity in test [4] and in test [5] was above 10 µM throughout.
Turning to `O[C@H]1CC[C@H](Nc2ncc3nc(Nc4c(F)cc(F)cc4F)n([C@H]4CCOC4)c3n2)CC1` [Tanzisertib], the drug sensitivity score in test [1] and in test [2] was 0 each time. The TC50 cytotoxicity in test [4] and in test [5] was above 10 µM throughout.
Take `C[C@@H]1CCN(C(=O)CC#N)C[C@@H]1N(C)c1ncnc2[nH]ccc12` [Tofacitinib]: the drug sensitivity score in test [1] and in test [2] was 0 throughout. In addition, the TC50 cytotoxicity in test [4] and in test [5] was above 5 µM in each case.
Consider `NC(=S)N/N=C/c1ncccc1N` [Triapine], for which the drug sensitivity score in test [1] and in test [2] was 0 each time. Besides, the TC50 cytotoxicity in test [4] and in test [5] was above 10 µM in each case.
Regarding `COC(=O)c1ccc2c(c1)[nH]c1ncnc(NCCCN3CCCCC3)c12` [UM729], the drug sensitivity score in test [1] and in test [2] was 0 each time. Also, the TC50 cytotoxicity in test [4] and in test [5] was above 10 µM in each case.
As for `COc1cc2c(NC3CCN(C(C)C)CC3)nc(N3CCC(F)(F)CC3)nc2cc1OCCCN1CCCC1` [UNC0642], the drug sensitivity score in test [1] came out at 0.1; in test [2] it was 0. Further, the TC50 cytotoxicity in test [4] and in test [5] was above 10 µM throughout.
Regarding `CCCCNc1ncc(C(=O)NCc2ccc(-n3ccnc3)cc2)c(NC2CCC(O)CC2)n1` (centres undefined) [UNC2881], the drug sensitivity score in test [1] and in test [2] was 0 throughout. For the same compound, the TC50 cytotoxicity in test [4] and in test [5] was above 2.5 µM each time.
As to `NC(=O)c1cccc(-c2cccc(OC(=O)NC3CCCCC3)c2)c1` [URB597], the drug sensitivity score in test [1] and in test [2] was 0 each time. Further, the TC50 cytotoxicity in test [4] and in test [5] was above 1 µM throughout.
On to `O=C(O)CC1CC(c2ccccc2)=NO1` (centres undefined) [VGX-1027], for which the drug sensitivity score in test [1] and in test [2] was 0 in each case. Further, the TC50 cytotoxicity in test [4] and in test [5] was above 10 µM in each case.
`O=C(/C=C\n1cnc(-c2cc(C(F)(F)F)cc(C(F)(F)F)c2)n1)NNc1ccccn1` [Verdinexor]: the drug sensitivity score in test [1] and in test [2] was 0 in each case. Further, the TC50 cytotoxicity in test [4] and in test [5] was above 1 µM in each case.
With `CS(=O)(=O)c1ccc(C(=O)Nc2ccc(Cl)c(-c3ccccn3)c2)c(Cl)c1` [Vismodegib], the drug sensitivity score in test [1] and in test [2] was 0 throughout. The TC50 cytotoxicity in test [4] and in test [5] was above 10 µM each time.
Consider `Oc1nc(-c2ccc(C(F)(F)F)cc2)nc2c1CSCC2` [XAV-939], for which the drug sensitivity score in test [1] and in test [2] was 0 throughout. Also, the TC50 cytotoxicity in test [4] and in test [5] was above 10 µM throughout.
